ChEMBL document CHEMBL1201862, “PubChem BioAssay data set” (2004)
The source made the active and inactive calls.

Key:
[1] = THP-1 cell cytotoxicity, dose response, cytotoxicity control for Vif-APOBEC3G degradation inhibitor project, THP-1 cells (AID 1117359); type: functional; conditions: Human immunodeficiency virus 1, THP-1
[2] = inhibitors of fibronectin matrix deposition, dose response, AH1F cells, Alexa488-FN fluorescence, cherry-picks (AID 1035475); type: functional, cell-based
[3] = non-specific cell cytotoxicity, dose response, cytotoxicity control for PAX8 inhibitor project, plate reader, dry powder samples (AID 743021); type: functional, cell-based
[4] = target: C-C chemokine receptor type 6 (Homo sapiens, UniProt P51684); assay: CCR6 receptor antagonists, dose response, cell-based, luminescent beta-arrestin readout (AID 504728); type: functional
[5] = target: Protein Tat (Human immunodeficiency virus type 1 group M subtype B (isolate HXB2)(HIV-1), UniProt P04608); type: functional;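 note: tat binding to TAR RNA read out by fluorescence polarization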
[6] = target: Paired box protein Pax-8 (Homo sapiens, UniProt Q06710); assay: inhibitors of PAX8-driven TPO luciferase reporter, dose response, RMG-I cells, cherry-pick (AID 687027); type: functional, cell-based;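 note: luciferase reporter driven by Pax8 target thyroperoxidase promoter measured by SteadyGlo luminescence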
[7] = HEK293 cell cytotoxicity, dose response, cytotoxicity control, cherry-picks, set 5 (AID 1053117); type: functional, cell-based
[8] = target: Genome polyprotein (dengue virus type 2, UniProt P29990); assay: Dengue-2 NS5 methyltransferase inhibitors, primary screen, biochemical, confirmation dose response (AID 588689); type: functional
[9] = tested on: Vero; assay: Vero cell cytotoxicity, cytotoxicity control for flavivirus capping enzyme inhibitors (AID 588742); type: functional; conditions: Chlorocebus sabaeus
[10] = target: Beta-galactosidase (Escherichia coli, UniProt Q8VNN2); assay: beta-galactosidase enzyme inhibitors and activators, dose response, artefact control for CCR6 antagonist project, biochemical, E. coli enzyme, set 3 (AID 504712); type: functional
[11] = A549 cell cytotoxicity, dose response, cytotoxicity control, cherry-picks, 26 µM top dose (AID 1053119); type: functional, cell-based
[12] = HeLa cell cytotoxicity, dose response, cytotoxicity control for MgcRacGAP inhibitor project (AID 624300); type: functional
[13] = target: Heat shock protein HSP 90-alpha (Homo sapiens, UniProt P07900); type: functional, organism-based
[14] = target: T1, Rac GTPase-activating protein 1 (Homo sapiens, UniProt Q9H0H5); assay: MgcRacGAP GTPase-activating activity inhibitors, confirmation, biochemical, ADP Hunter fluorescence, primary and confirmatory (AID 624330); type: functional
T1 sequence (Q9H0H5 whole entry): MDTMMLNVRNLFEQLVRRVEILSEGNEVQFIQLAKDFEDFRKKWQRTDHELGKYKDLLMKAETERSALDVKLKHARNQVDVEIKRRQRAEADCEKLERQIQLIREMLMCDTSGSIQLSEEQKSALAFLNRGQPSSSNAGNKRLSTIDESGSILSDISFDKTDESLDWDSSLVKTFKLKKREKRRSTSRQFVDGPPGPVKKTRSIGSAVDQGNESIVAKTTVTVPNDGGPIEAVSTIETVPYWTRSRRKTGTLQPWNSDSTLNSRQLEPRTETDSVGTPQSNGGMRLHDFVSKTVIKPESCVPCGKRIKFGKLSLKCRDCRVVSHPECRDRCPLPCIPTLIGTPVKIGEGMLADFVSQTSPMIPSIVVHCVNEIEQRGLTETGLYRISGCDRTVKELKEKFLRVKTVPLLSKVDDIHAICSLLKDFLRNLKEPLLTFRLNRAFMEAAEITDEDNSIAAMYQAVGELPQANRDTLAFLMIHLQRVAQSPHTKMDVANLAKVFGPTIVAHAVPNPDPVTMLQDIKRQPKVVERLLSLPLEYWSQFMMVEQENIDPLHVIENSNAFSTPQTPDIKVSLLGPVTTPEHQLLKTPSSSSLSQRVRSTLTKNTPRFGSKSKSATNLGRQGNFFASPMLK

[15] = HepG2 cell cytotoxicity, dose response, cytotoxicity control, cherry-picks, set 5 (AID 1053118); type: functional, cell-based
[16] = target: T2, Polyadenylate-binding protein 1 (Homo sapiens, UniProt P11940); assay: PABP poly(A) RNA binding inhibitors, primary screen, biochemical, fluorescence polarization, uHTS (AID 2014)
[17] = target: T2, Polyadenylate-binding protein 1; assay: PABP inhibition in translation initiation, SAR follow-up (AID 435018); type: functional
[18] = target: T3, Carboxy-terminal domain RNA polymerase II polypeptide A small phosphatase 1 (Homo sapiens, UniProt Q9GZU7); assay: inhibitors of CTDSP1, concentration-response testing, biochemical assay, absorbance-based, actives from ultra-high-throughput screening (AID 540297); type: functional
T3 sequence (Q9GZU7 whole entry): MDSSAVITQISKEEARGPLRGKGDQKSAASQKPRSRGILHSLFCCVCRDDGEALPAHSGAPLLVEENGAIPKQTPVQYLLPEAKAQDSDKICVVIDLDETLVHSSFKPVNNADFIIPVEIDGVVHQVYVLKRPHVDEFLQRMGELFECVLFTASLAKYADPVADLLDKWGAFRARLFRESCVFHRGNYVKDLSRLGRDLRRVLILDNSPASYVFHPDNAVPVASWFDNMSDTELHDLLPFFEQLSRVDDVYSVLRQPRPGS

[19] = target: T4, Eukaryotic translation initiation factor 4H (Homo sapiens, UniProt Q15056); assay: eIF4H inhibition in translation initiation, SAR follow-up (AID 435011); type: functional
[20] = target: T4, Eukaryotic translation initiation factor 4H; assay: human eIF4H binding inhibitors, primary screen, translation initiation inhibitor project, biochemical, uHTS, fluorescence polarization (AID 2012)
[21] = target: T5, Tyrosine-protein phosphatase non-receptor type 7 (Homo sapiens, UniProt P35236); assay: redox-dependent HePTP inhibition, mechanism study, biochemical, fluorescence (AID 2068); type: functional
T5 sequence (P35236 whole entry): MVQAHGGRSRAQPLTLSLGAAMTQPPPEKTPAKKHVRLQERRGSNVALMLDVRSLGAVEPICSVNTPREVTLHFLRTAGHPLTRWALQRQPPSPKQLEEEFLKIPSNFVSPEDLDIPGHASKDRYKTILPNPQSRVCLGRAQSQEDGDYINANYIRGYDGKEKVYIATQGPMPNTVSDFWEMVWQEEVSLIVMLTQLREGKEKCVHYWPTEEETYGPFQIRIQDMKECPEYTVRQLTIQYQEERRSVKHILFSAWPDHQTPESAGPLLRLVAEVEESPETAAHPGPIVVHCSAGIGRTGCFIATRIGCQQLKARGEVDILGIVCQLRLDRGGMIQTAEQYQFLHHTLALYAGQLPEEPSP

[22] = target: T6, Dual specificity protein phosphatase 3 (Homo sapiens, UniProt P51452); assay: SAR VHR1 Fluorescent Assay for In Vitro dose response studies. [Related pubchem assays (depositor defined):AID1654, AID1661, AID1878, AID1992, AID2004, AID2070, AID2085]; type: functional
[23] = target: T5, Tyrosine-protein phosphatase non-receptor type 7; type: functional
[24] = target: T7, Dual specificity protein phosphatase 6 (Rattus norvegicus, UniProt Q64346); type: functional
T7 sequence (Q64346 whole entry): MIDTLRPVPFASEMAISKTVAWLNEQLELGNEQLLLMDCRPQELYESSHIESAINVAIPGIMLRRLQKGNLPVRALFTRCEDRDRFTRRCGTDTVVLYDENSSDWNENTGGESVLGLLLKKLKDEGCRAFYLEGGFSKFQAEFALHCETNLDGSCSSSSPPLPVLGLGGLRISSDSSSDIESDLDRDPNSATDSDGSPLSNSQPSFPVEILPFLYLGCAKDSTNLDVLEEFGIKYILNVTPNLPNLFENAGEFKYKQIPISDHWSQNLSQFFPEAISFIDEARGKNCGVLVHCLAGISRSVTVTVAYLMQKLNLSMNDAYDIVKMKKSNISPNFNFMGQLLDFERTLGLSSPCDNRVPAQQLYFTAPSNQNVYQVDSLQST

[25] = target: T7, Dual specificity protein phosphatase 6
[26] = target: Glyceraldehyde-3-phosphate dehydrogenase (Homo sapiens, UniProt P04406)
[27] = target: T6, Dual specificity protein phosphatase 3; assay: MOA VHR1 Fluorescent secondary assay for identification of redox-state modulating compounds. [Related pubchem assays (depositor defined):AID1654, AID1661, AID1878, AID1957]

T2 sequence (P11940 whole entry): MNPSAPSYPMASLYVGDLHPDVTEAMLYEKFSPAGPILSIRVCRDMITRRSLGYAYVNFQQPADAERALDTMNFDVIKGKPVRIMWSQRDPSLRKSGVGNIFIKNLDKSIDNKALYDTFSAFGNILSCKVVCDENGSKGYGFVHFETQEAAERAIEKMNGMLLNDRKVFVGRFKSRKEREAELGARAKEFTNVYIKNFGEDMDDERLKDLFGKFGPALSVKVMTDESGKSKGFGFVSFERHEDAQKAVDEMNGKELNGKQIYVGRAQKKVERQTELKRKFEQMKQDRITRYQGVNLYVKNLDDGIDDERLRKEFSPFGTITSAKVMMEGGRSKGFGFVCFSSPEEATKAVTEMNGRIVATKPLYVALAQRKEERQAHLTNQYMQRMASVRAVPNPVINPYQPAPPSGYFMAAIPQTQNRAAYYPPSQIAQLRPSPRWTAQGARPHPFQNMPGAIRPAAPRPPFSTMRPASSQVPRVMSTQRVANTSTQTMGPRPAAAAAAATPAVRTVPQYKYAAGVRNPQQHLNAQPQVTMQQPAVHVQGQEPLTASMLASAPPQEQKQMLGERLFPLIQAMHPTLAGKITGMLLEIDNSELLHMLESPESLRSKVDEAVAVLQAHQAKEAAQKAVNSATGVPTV
T6 sequence (P51452 whole entry): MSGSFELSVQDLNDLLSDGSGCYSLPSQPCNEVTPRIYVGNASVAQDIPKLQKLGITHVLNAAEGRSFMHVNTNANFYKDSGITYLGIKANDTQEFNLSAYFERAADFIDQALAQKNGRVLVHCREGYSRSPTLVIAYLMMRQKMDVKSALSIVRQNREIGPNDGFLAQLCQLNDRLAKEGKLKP
Sequence of Glyceraldehyde-3-phosphate dehydrogenase (P04406 whole entry): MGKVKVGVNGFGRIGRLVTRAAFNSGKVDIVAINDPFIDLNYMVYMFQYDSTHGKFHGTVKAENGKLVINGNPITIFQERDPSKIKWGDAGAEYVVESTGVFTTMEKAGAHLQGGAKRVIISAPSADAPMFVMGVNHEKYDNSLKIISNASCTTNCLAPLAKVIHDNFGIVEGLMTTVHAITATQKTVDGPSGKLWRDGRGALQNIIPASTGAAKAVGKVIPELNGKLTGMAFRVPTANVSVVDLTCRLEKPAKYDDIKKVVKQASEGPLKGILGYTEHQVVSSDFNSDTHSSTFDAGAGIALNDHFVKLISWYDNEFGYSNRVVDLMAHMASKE
Sequence of Protein Tat (P04608 whole entry): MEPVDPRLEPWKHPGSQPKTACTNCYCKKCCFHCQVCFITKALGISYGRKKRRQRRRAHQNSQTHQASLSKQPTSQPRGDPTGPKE
Sequence of C-C chemokine receptor type 6 (P51684 whole entry): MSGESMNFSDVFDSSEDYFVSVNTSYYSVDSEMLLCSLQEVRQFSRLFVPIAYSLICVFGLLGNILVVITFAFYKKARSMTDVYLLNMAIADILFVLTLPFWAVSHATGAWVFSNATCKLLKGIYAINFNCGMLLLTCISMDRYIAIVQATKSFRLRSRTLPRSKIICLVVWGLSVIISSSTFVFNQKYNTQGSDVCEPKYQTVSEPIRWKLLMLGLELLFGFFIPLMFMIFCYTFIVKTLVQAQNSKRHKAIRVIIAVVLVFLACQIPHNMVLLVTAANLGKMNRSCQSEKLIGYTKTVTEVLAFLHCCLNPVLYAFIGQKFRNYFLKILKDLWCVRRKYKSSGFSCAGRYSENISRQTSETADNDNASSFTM
Sequence of Paired box protein Pax-8 (Q06710 whole entry): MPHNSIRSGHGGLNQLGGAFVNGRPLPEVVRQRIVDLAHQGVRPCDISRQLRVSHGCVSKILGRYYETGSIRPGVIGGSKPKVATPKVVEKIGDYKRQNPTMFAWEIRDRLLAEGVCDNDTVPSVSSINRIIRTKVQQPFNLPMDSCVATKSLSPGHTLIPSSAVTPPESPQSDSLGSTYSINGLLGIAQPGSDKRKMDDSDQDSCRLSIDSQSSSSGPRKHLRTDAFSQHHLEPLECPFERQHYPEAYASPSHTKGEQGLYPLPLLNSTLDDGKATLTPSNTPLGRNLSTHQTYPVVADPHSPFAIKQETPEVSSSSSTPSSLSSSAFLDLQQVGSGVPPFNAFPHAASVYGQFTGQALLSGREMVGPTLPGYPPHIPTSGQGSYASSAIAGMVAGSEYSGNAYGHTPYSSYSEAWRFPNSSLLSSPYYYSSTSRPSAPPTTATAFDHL
Sequence of Beta-galactosidase (Q8VNN2 whole entry): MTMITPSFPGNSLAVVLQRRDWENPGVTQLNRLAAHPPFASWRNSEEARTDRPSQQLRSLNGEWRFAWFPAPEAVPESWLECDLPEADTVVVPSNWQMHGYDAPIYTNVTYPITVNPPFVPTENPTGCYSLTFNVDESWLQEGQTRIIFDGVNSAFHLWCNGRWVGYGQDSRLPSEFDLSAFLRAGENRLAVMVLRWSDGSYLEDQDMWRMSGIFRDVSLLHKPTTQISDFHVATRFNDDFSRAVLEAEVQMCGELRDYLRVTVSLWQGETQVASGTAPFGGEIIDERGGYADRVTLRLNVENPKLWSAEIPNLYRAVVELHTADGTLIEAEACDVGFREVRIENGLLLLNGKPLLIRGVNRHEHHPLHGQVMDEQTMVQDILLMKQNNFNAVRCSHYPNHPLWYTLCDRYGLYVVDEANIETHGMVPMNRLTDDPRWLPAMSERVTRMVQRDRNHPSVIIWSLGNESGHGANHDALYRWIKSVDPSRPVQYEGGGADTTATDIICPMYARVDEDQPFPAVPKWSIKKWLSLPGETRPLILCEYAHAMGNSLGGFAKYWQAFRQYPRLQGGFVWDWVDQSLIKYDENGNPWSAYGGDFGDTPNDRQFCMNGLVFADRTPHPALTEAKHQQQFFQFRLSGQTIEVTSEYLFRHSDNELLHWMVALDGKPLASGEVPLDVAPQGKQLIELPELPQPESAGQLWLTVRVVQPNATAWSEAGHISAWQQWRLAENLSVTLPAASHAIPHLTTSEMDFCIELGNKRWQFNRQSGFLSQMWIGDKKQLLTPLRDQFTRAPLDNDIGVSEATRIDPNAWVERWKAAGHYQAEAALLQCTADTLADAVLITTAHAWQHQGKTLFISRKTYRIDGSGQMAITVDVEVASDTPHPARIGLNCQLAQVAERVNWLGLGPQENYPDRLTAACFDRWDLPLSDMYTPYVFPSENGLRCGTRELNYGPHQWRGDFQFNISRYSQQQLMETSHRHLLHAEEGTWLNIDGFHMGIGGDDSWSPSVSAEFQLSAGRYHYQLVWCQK
Sequence of Genome polyprotein (P29990 2492-3391 limits assumed): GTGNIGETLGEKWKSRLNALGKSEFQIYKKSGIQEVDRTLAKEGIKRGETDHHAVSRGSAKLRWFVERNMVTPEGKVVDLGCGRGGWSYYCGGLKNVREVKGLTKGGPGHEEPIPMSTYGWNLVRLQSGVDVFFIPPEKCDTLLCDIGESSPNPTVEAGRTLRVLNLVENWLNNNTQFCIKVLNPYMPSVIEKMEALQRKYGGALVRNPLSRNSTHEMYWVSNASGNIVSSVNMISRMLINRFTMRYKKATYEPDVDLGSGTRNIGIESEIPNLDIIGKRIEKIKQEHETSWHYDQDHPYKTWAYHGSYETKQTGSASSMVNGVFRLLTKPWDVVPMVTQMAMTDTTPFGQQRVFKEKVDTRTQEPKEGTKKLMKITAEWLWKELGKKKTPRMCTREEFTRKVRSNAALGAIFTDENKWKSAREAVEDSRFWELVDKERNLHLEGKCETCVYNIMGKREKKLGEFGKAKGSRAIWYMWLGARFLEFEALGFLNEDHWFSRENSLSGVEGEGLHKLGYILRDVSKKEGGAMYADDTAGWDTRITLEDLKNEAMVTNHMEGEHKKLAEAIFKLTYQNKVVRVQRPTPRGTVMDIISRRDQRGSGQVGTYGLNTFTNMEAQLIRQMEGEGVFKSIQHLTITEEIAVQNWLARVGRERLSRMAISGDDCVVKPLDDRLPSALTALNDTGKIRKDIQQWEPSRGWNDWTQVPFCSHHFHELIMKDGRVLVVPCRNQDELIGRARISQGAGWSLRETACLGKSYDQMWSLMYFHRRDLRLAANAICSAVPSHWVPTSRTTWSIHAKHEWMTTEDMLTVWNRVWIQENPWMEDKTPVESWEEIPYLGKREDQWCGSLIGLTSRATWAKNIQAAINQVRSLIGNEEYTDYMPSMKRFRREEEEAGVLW

## CC1OC(CC(=O)O)CC2=C1C(=O)c1c(O)cccc1C2=O (configuration not stated) [NANAOMYCIN]
[1]
  CC50: 0.69 µM (active)
[2]
  AC50: 0.779 µM (active)
[3]
  AC50: 3.45 µM (active)
[4]
  IC50: > 66.6 µM (inactive)
[5]
  IC50: > 100 µM (active)
[6]
  AC50: 0.469 µM (active)
[7]
  AC50: 2.5 µM (active)
[8]
  IC50: 5.04 µM (active)
[9]
  CC50: 0.72 µM (active)
[10]
  IC50: > 66.6 µM (inactive)
[11]
  AC50: 0.485 µM (active)
[12]
  CC50: 5.86 µM (active)
[13]
  AC50: 0.262 µM (active)
[14]
  IC50: 76.4 µM (active)
[15]
  AC50: 0.37 µM (active)

## CC(C)c1ccc(OC(=O)c2cccc(S(=O)(=O)N3CCN(C)CC3)c2)cc1
[16]
  IC50: 6.93 µM (active)
[17]
  IC50: 15.7 µM (active)
[18]
  IC50: 11.6 µM (active)
[19]
  IC50: 27.6 µM (active)
[20]
  IC50: > 100 µM (inactive)

## O=C(O)c1ccc(-c2ccc(/C=c3\sc4nc5ccccc5n4c3=O)o2)cc1
[21]
  IC50: 5.78 µM (active)
[22]
  IC50: 33.5 µM (active)
[23]
  IC50: 3.26 µM (active)
[24]
  IC50: 6.59 µM (active)
[25]
  IC50: 8.6 µM (active)
[26]
  IC50: > 100 µM (not active)
[27]
  IC50: 6.21 µM (active)
